The text below walks through data of ChEMBL document CHEMBL3137667, “[Drug-induced liver injury; fourteenth updated edition of the bibliographic database of liver injuries and related drugs]” (Gastroenterol Clin Biol, 2004).

For series [1] the following is noted: human.
For series [2] the following is noted: human. This is another data set of the same source.
Series [3] can be described thus: Proposed mechanism(s) of liver damage. [column 'MEC' in source]. Conditions: human.
The conditions of series [4]: human. This is another data set of the same source.
The conditions of series [5]: human. This is another data set of the same source.
The conditions of series [6]: human, serum, 4383 h.
For series [7] the following is noted: human. This is another data set of the same source.
The conditions of series [8]: human, serum.
Series [9] can be described thus: Times to onset, minimal and maximal, observed in the indexed observations. [column 'DELAI' in source]. Conditions: human.
For series [10] the following is noted: human. The source holds these as a separate data set.
A short description of series [11]: Highest frequency of acute liver toxicity observed during clinical trials, expressed as a percentage. [column '% AIGUE' in source]. To be noted: human.
For series [12] the following is noted: human. The source holds these as a separate data set.
A short description of series [13]: Comments (NB not yet translated). [column 'COMMENTAIRES' in source]. To be noted: human.
For series [14] the following is noted: human. This is another data set of the same source.
The nature of series [15]: Presence of at least one case with successful reintroduction. [column 'REINT' in source]. To be noted: human.
The conditions of series [16]: human, serum. The source holds these as a separate data set.
The conditions of series [17]: human. The source holds these as a separate data set.
The conditions of series [18]: human. The source holds these as a separate data set.
Series [19] in a line: Highest frequency of moderate liver toxicity observed during clinical trials, expressed as a percentage. [column '% BIOL' in source]. Conditions: human.

The structures appear in SMILES notation.
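For Hepatotoxicity (association with vascular disease) in this document: count of indexed literature references reporting vascular liver injury in humans, e.g. peliosis hepatitis, hepatic veno-occlusive disease or Budd-Chiari syndrome.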
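For Hepatotoxicity (benign tumour) in this document: value is a count of indexed literature references citing a benign tumour confirmed by histopathology.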
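For Hepatotoxicity (choleostasis) in this document: human cholestatic liver injury, shown by histopathology or by peak ALT or AST elevation over alkaline phosphatase ratio below 2, value counts indexed literature reports.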
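For Hepatotoxicity (chronic liver disease) in this document: chronic liver injury confirmed by histopathology or persistently raised serum aminotransferase activity beyond 6 months, value given as the count of indexed literature references.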
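For Hepatotoxicity (cirrhosis) in this document: value is a count of indexed literature references reporting cirrhosis confirmed by histopathology.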
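For Hepatotoxicity (cytolytic) in this document: human cytolytic liver injury, shown by histopathology or by a ratio above 5 of peak ALT or AST elevation to alkaline phosphatase elevation, value counts indexed references.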
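For Hepatotoxicity (granulomatous hepatitis) in this document: value is a count of indexed literature references reporting granulomatous liver disease confirmed by histopathology.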
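For Hepatotoxicity (malignant tumour) in this document: malignant tumour confirmed by histopathology, value gives the count of indexed literature references reporting it.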
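For Hepatotoxicity (severe hepatitis) in this document: human clinical data: severe hepatitis, meaning potentially life-threatening liver failure or clinically observed cases, the value counts how many indexed literature references report it.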
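For Hepatotoxicity (steatosis) in this document: steatosis confirmed by histopathology, value is the count of indexed references.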

`CC(=O)N1CCN(c2ccc(OCC3COC(Cn4ccnc4)(c4ccc(Cl)cc4Cl)O3)cc2)CC1` (configuration not stated) [KETOCONAZOLE]: the “Hepatotoxicity (benign tumour)” value in [1] is 0. For the same compound, the “Hepatotoxicity (association with vascular disease)” value in [2] is given as 0. The “Hepatotoxicity (mechanism)” value in series [3] was “Toxic, Dose-dependant”. For the same compound, in series [4], the “Hepatotoxicity (cirrhosis)” value was found to be 0. Besides, the “Hepatotoxicity (animal toxicity known)” value in series [5] is “yes”. Further, the “Hepatotoxicity (chronic liver disease)” value in series [6] is reported as 3. Also, the “Hepatotoxicity (severe hepatitis)” value in [7] worked out at 14. For the same compound, the “Hepatotoxicity (acute)” value in [8] stood at 45; in series [11] it was 2.9%. Further, the “Hepatotoxicity (time to onset)” value in [9] came out at 3 days - 5 years. Also, in series [10], the “Hepatotoxicity (granulomatous hepatitis)” value amounted to 1. The “Hepatotoxicity (choleostasis)” value in series [12] amounted to 19. Further, the “Hepatotoxicity (comment)” value in [13] was “CHOLESTASE_PROLONGEE”. For the same compound, in series [14], the “Hepatotoxicity (steatosis)” value came to 2. In [15], the “Hepatotoxicity (successful reintroduction)” value is reported as “yes”. The figures for the “Hepatotoxicity (moderate)” value in series [16] and in series [19] were 62 and 50%, respectively. Moreover, in series [17], the “Hepatotoxicity (malignant tumour)” value was 0. Also, the “Hepatotoxicity (cytolytic)” value in [18] was found to be 37.
In the case of `COC(=O)Nc1nc2ccc(C(=O)c3ccccc3)cc2[nH]1` [MEBENDAZOLE], the “Hepatotoxicity (benign tumour)” value in series [1] is listed as 0. Further, in series [2], the “Hepatotoxicity (association with vascular disease)” value worked out at 0. In [3], the “Hepatotoxicity (mechanism)” value is recorded as “Allergic, Dose-dependant”. Moreover, the “Hepatotoxicity (cirrhosis)” value in series [4] worked out at 0. Also, the “Hepatotoxicity (animal toxicity known)” value in [5] is given as “yes”. Further, the “Hepatotoxicity (chronic liver disease)” value in series [6] was found to be 0. In addition, the “Hepatotoxicity (severe hepatitis)” value in series [7] was 0. Also, the “Hepatotoxicity (acute)” value in series [8] is reported as 3; in series [11], 0%. The “Hepatotoxicity (time to onset)” value in series [9] was determined as 2 days - 2 months. Moreover, the “Hepatotoxicity (granulomatous hepatitis)” value in series [10] came out at 1. The “Hepatotoxicity (choleostasis)” value in series [12] stood at 0. In addition, the “Hepatotoxicity (comment)” value in [13] is listed as “AC_ANTI-ML I/CIMETIDINE”. In series [14], the “Hepatotoxicity (steatosis)” value came out at 0. Further, in series [15], the “Hepatotoxicity (successful reintroduction)” value is “yes”. The entries for the “Hepatotoxicity (moderate)” value in series [16] and in [19] were 13 and 30%, respectively. Also, the “Hepatotoxicity (malignant tumour)” value in [17] was found to be 0. The “Hepatotoxicity (cytolytic)” value in series [18] was 3.
For `Cc1ccc(S(=O)(=O)NC(=O)NC2CCCCC2)cc1N` [METAHEXAMIDE], the “Hepatotoxicity (benign tumour)” value in series [1] is recorded as 0. Further, the “Hepatotoxicity (association with vascular disease)” value in series [2] came to 0. Further, in series [3], the “Hepatotoxicity (mechanism)” value is “Dose-dependant”. For the same compound, the “Hepatotoxicity (cirrhosis)” value in series [4] worked out at 1. In series [5], the “Hepatotoxicity (animal toxicity known)” value is on record as “yes”. Further, in series [6], the “Hepatotoxicity (chronic liver disease)” value is recorded as 0. The “Hepatotoxicity (severe hepatitis)” value in series [7] is reported as 2. Moreover, the “Hepatotoxicity (acute)” value in [8] came to 11; in series [11] it was 4.4%. Also, in series [9], the “Hepatotoxicity (time to onset)” value was 4 days - 1 week. For the same compound, in series [10], the “Hepatotoxicity (granulomatous hepatitis)” value was 0. The “Hepatotoxicity (choleostasis)” value in [12] was found to be 4. Moreover, the “Hepatotoxicity (comment)” value in series [13] was “PERICHOLANGITE RC/CARBUTAMIDE”. The “Hepatotoxicity (steatosis)” value in series [14] came out at 0. In [15], the “Hepatotoxicity (successful reintroduction)” value was “yes”. The figures for the “Hepatotoxicity (moderate)” value in series [16] and in series [19] were 6 and 24%, respectively. In [17], the “Hepatotoxicity (malignant tumour)” value is listed as 0. Besides, the “Hepatotoxicity (cytolytic)” value in series [18] turned out to be 7.
In the case of `CN(Cc1cnc2nc(N)nc(N)c2n1)c1ccc(C(=O)N[C@@H](CCC(=O)O)C(=O)O)cc1` [METHOTREXATE], the “Hepatotoxicity (benign tumour)” value in series [1] came out at 0. Besides, the “Hepatotoxicity (association with vascular disease)” value in series [2] is 5. In series [3], the “Hepatotoxicity (mechanism)” value was “Dose-dependant”. Also, the “Hepatotoxicity (cirrhosis)” value in [4] is 42. Moreover, the “Hepatotoxicity (animal toxicity known)” value in series [5] is “yes”. The “Hepatotoxicity (chronic liver disease)” value in series [6] amounted to 45. Also, the “Hepatotoxicity (severe hepatitis)” value in series [7] came to 5. For the same compound, the “Hepatotoxicity (acute)” value in [8] was 26; in [11], 35%. For the same compound, the “Hepatotoxicity (time to onset)” value in series [9] is reported as 4 hours - 16 years. In [10], the “Hepatotoxicity (granulomatous hepatitis)” value stood at 8. The “Hepatotoxicity (choleostasis)” value in series [12] came out at 2. Besides, the “Hepatotoxicity (comment)” value in [13] is listed as “I/ETRETINATE REACTIVATION_HVB SHNA MVO”. Also, the “Hepatotoxicity (steatosis)” value in series [14] was found to be 16. The “Hepatotoxicity (successful reintroduction)” value in series [15] is given as “yes”. The figures for the “Hepatotoxicity (moderate)” value in series [16] and in series [19] were 173 and 88%, respectively. In addition, the “Hepatotoxicity (malignant tumour)” value in [17] amounted to 8. Also, in [18], the “Hepatotoxicity (cytolytic)” value is 21.
As to `COC(F)(F)C(Cl)Cl` [METHOXYFLURANE], the “Hepatotoxicity (benign tumour)” value in series [1] was 0. The “Hepatotoxicity (association with vascular disease)” value in series [2] was found to be 0. For the same compound, the “Hepatotoxicity (mechanism)” value in [3] is reported as “Allergic, Reactive metabolite”. In addition, the “Hepatotoxicity (cirrhosis)” value in series [4] is on record as 0. In addition, in series [5], the “Hepatotoxicity (animal toxicity known)” value is on record as “yes”. Further, the “Hepatotoxicity (chronic liver disease)” value in series [6] is recorded as 0. Moreover, the “Hepatotoxicity (severe hepatitis)” value in [7] came to 19. Also, the “Hepatotoxicity (acute)” value in series [8] is reported as 32; in [11], 0%. Also, in [9], the “Hepatotoxicity (time to onset)” value was found to be 1 day - 20 days. Also, the “Hepatotoxicity (granulomatous hepatitis)” value in [10] is 0. The “Hepatotoxicity (choleostasis)” value in series [12] is recorded as 0. Further, in series [13], the “Hepatotoxicity (comment)” value is “RC/HALOTHANE”. Further, the “Hepatotoxicity (steatosis)” value in series [14] worked out at 3. Further, in series [15], the “Hepatotoxicity (successful reintroduction)” value is given as “yes”. For the same compound, the “Hepatotoxicity (moderate)” value stood at 8 in series [16] and 0% in [19]. In addition, the “Hepatotoxicity (malignant tumour)” value in [17] was 0. Moreover, in [18], the “Hepatotoxicity (cytolytic)” value came to 27.
Take `CN(C)c1ccc(O)c2c1C[C@H]1C[C@H]3[C@H](N(C)C)C(O)=C(C(N)=O)C(=O)[C@@]3(O)C(O)=C1C2=O` [MINOCYCLINE]: in series [1], the “Hepatotoxicity (benign tumour)” value amounted to 0. Moreover, in series [2], the “Hepatotoxicity (association with vascular disease)” value came out at 0. In addition, in series [3], the “Hepatotoxicity (mechanism)” value is listed as “Allergic, Dose-dependant, Toxic Metabolite”. Also, in series [4], the “Hepatotoxicity (cirrhosis)” value came to 0. For the same compound, the “Hepatotoxicity (animal toxicity known)” value in series [5] is “yes”. In addition, the “Hepatotoxicity (chronic liver disease)” value in [6] is given as 11. Moreover, the “Hepatotoxicity (severe hepatitis)” value in series [7] came to 8. Further, the “Hepatotoxicity (acute)” value in series [8] amounted to 48; in [11] it was 0%. In series [9], the “Hepatotoxicity (time to onset)” value amounted to 4 days - 12 years. The “Hepatotoxicity (granulomatous hepatitis)” value in series [10] turned out to be 1. Also, the “Hepatotoxicity (choleostasis)” value in series [12] is recorded as 2. Further, in [13], the “Hepatotoxicity (comment)” value is reported as “AC_ANTI-N/-ADN/-pNCA REACTIVATION_VH-6”. The “Hepatotoxicity (steatosis)” value in series [14] is 2. Moreover, the “Hepatotoxicity (successful reintroduction)” value in [15] is “yes”. Also, the “Hepatotoxicity (moderate)” value in [16] amounted to 17; in series [19], 41.7%. Further, the “Hepatotoxicity (malignant tumour)” value in series [17] stood at 0. For the same compound, the “Hepatotoxicity (cytolytic)” value in series [18] stood at 36.
Regarding `CCC(=O)O[C@](Cc1ccccc1)(c1ccccc1)[C@H](C)CN(C)C` [PROPOXYPHENE], the “Hepatotoxicity (benign tumour)” value in series [1] was 0. The “Hepatotoxicity (association with vascular disease)” value in [2] came out at 0. Besides, the “Hepatotoxicity (mechanism)” value in [3] is “Allergic, Dose-dependant”. The “Hepatotoxicity (cirrhosis)” value in [4] was 0. The “Hepatotoxicity (animal toxicity known)” value in series [5] is “yes”. Also, the “Hepatotoxicity (chronic liver disease)” value in [6] is listed as 1. Also, in series [7], the “Hepatotoxicity (severe hepatitis)” value is 0. For the same compound, the “Hepatotoxicity (acute)” value in [8] was 21; in [11] it was 0%. In addition, in series [9], the “Hepatotoxicity (time to onset)” value is on record as 1 day - 1.5 years. The “Hepatotoxicity (granulomatous hepatitis)” value in series [10] worked out at 0. Also, the “Hepatotoxicity (choleostasis)” value in [12] is 20. The “Hepatotoxicity (comment)” value in [13] is on record as “CHOLANGITE”. Also, the “Hepatotoxicity (steatosis)” value in series [14] is 0. Also, the “Hepatotoxicity (successful reintroduction)” value in series [15] was “yes”. For the same compound, the “Hepatotoxicity (moderate)” value is given as 6 in series [16] and 14.3% in [19]. Besides, in series [17], the “Hepatotoxicity (malignant tumour)” value is 0. The “Hepatotoxicity (cytolytic)” value in [18] is listed as 7.
As to `NC(=O)c1cnccn1` [PYRAZINAMIDE], the “Hepatotoxicity (benign tumour)” value in series [1] amounted to 0. Further, the “Hepatotoxicity (association with vascular disease)” value in series [2] was determined as 0. Also, the “Hepatotoxicity (mechanism)” value in series [3] is on record as “Allergic, Dose-dependant”. Besides, the “Hepatotoxicity (cirrhosis)” value in [4] came out at 0. In addition, the “Hepatotoxicity (animal toxicity known)” value in series [5] is listed as “yes”. The “Hepatotoxicity (chronic liver disease)” value in [6] came out at 1. For the same compound, the “Hepatotoxicity (severe hepatitis)” value in series [7] is given as 19. Besides, the “Hepatotoxicity (acute)” value is listed as 51 in series [8] and 31.8% in series [11]. Besides, the “Hepatotoxicity (time to onset)” value in [9] was determined as 2 hours - 1.2 years. Also, the “Hepatotoxicity (granulomatous hepatitis)” value in series [10] amounted to 1. For the same compound, in [12], the “Hepatotoxicity (choleostasis)” value turned out to be 8. In series [13], the “Hepatotoxicity (comment)” value is on record as “I/OFLOXACINE AC_ANTI-N”. For the same compound, the “Hepatotoxicity (steatosis)” value in [14] is recorded as 0. In addition, the “Hepatotoxicity (successful reintroduction)” value in series [15] is “yes”. In addition, the “Hepatotoxicity (moderate)” value worked out at 21 in series [16] and 36.4% in series [19]. For the same compound, the “Hepatotoxicity (malignant tumour)” value in [17] amounted to 0. For the same compound, in [18], the “Hepatotoxicity (cytolytic)” value is on record as 28.
